According to PMC12208134, “Structure-activity relationships of 1,5-dihydro-2H-benzo[b][1,4]diazepine-2,4(3H)-diones as inhibitors of Trypanosoma cruzi” (RSC medicinal chemistry, 2025):
In brackets after ≈: the same amount, converted by molar mass. Several values for one entry are separate records, joined by “and”; a condition that tells them apart may be missing. Identical values can stand only once. Like-named read-outs stand apart in the source and are kept apart here.

How the values were obtained:
[1] = Human liver microsomal intrinsic clearance; type: in vitro ADME
[2] = Kinetic aqueous solubility by CAD; type: physicochemical; details: kinetic from dmso stock
Tc-CYP51 = Tc-CYP51 (Trypanosoma cruzi, UniProt Q7Z1V1); experiment: T. cruzi sterol 14α-demethylase (CYP51) enzyme assay; type: biochemical; details: for Tc CYP51 Hill / Emax / IC50: individual replicate; for Emax: read-out: Tc CYP51 Max Effect; for IC50: read-out: Tc CYP51 pIC50 (converted); for fold more potent against the parasites than against Tc-CYP51: urea series
Chain of Tc-CYP51 (Q7Z1V1 whole entry): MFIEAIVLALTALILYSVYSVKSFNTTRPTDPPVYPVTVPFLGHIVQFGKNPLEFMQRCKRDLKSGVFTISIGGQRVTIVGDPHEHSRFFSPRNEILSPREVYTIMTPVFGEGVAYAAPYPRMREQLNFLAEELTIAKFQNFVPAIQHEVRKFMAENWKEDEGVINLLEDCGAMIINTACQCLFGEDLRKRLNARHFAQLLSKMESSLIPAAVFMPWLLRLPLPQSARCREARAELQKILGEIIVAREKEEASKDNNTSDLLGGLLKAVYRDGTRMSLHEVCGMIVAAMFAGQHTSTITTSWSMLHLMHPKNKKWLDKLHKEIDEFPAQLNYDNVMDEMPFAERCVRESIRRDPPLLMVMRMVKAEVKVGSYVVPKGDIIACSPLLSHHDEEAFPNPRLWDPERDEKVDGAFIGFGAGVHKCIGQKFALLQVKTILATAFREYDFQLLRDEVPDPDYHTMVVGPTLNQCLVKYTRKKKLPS
Method: T. cruzi sterol 14α-demethylase (CYP51) enzyme assay
Potency against T. cruzi CYP51 was determined using a previously described fluorescence assay. Average potency for compound 1 was determined with three experimental replicates. Potencies in Fig.3 are from single experimental replicates. ^5

[3] = tested on: intracellular T. cruzi amastigotes; experiment: T. cruzi intracellular potency assay (high content imaging); type: cell-based, Trypanosoma cruzi; set-up: key to Max Effect (T. cruzi): % inhibition; 0% = DMSO control, 100% = 16 μM nifurtimox control; details: for IC50 / Emax / EC50: Trypanosoma cruzi; for IC50: intracellular amastigotes in Vero cells, 96 h, mean of N ≥ 3, read-out: T. cruzi pIC50 (converted); for Hill slope (T. cruzi) / Max Effect (T. cruzi) / pEC50 (T. cruzi) / Emax / EC50: individual replicate; for Emax: read-out: Max Effect (T. cruzi); for EC50: read-out: pEC50 (T. cruzi) (converted)
Method: (§1) T. cruzi intracellular potency and rate-of-kill assay (high content imaging) ^1
(§2) Silvio X10/7 T. cruzi trypomastigotes were incubated at 37°C 5% CO2 with 1.6×10^7 Vero cells overnight at MOI10 in MEM media supplemented with 10% foetal calf serum (FCS). Extracellular parasites were removed by aspirating cell culture supernatant, and washing Vero monolayer with 10 ml serum-free MEM three times. Vero cells were then harvested by trypsinization and dispensed at 2×10^3 per well (50 μl in MEM/ 1% FCS) into 384 well plates pre-stamped with compounds in DMSO using automated washer/ dispenser EL406 and liquid handling software (Biotek). Plates were then incubated at 37°C in 5% CO2 for 96 h. For rate-of-kill determination, plates were incubated for 24h, 48h, 72h and 96h.
(§3) Plates were subsequently fixed with 4% formaldehyde for 20 min, permeabilised and stained with 5 μgml^-1 Hoechst 33342/ 0.1% Triton/ PBS Thimerosal 20 min. Automated imaging was performed by an Operetta high content imaging system using 20x objective (PerkinElmer). Images were analysed with an algorithm generated in Columbus (PerkinElmer) to segment Vero cell nuclei, Vero cell cytoplasm and parasite nuclei/ kinetoplasts, reporting number of amastigotes per Vero cell, percent infected Vero cells and total number of Vero cells. Compound potencies against T. cruzi parasites were calculated in IDBS Activitybase using percent infected Vero cells and Vero toxicity curves generated using number of host cells. All data was normalised to percent inhibition based on the raw data values for the 100% effect control (16 μM nifurtimox) and the 0% effect control (DMSO) on each plate at each time point. Curve fitting was carried out using a four-parameter equation as previously described. ^2 For rate-of-kill experiments the percent infected cells at each compound concentration was plotted against time.

[4] = Mouse liver microsomal intrinsic clearance; type: in vitro ADME
[5] = ChromLogD pH7.4 (chromatographic hydrophobicity index), PFI, LLE; details: for PFI: ChromLogDpH7.4 + no. aromatic rings; for chromatographic logD: pH 7.4
From the text: [23] Alongside PFI, LLE (ligand lipophilic efficiency, T. cruzi pIC50 - ChromLogDpH7.4) was also monitored to identify changes where the impact on potency was not driven by increasing lipophilicity.

host Vero cell = experiment: Vero host cell toxicity in the intracellular T. cruzi assay; type: cell-based; set-up: key to Max Effect (Vero): % inhibition; 0% = DMSO control, 100% = 16 μM nifurtimox control; details: for EC50 / IC50: Chlorocebus sabaeus; for EC50: Vero; for IC50: host Vero cell, read-out: Vero pIC50 (converted)
Method: as §1, §2, §3

[6] = kinetic, CAD, read-out: Aqueous solubility

Compound: COc1ccc(N2C(=O)C(NC(=O)Nc3ccc(C)cc3)C(=O)Nc3ccccc32)cc1 (stereo not shown) [Compound 4, 1-(1-(4-methoxyphenyl)-2,4-dioxo-2,3,4,5-tetrahydro-1H-benzo[b][1,4]diazepin-3-yl)-3-(p-tolyl)urea]
- HLM CLi ([1]; human liver microsomes): <0.4 mL/min/g
- solubility [2, 6]: 56 µM (≈ 24.1 µg/mL)
- Tc CYP51 Hill (Tc-CYP51): 0.9
- Emax (Tc-CYP51): 89%
- IC50 (Tc-CYP51): 1.58 µM
- fold more potent against the parasites than against Tc-CYP51 (Tc-CYP51): 10 fold
- IC50 [3]: 1 µM
- Hill slope (T. cruzi) [3]: 5.1 and 2.8 and 7.4 and 2.7 and 3.6 and 0.6 and 4.0 and 2.2
- Max Effect (T. cruzi) [3]: 106 and 89 and 74 and 85 and 86 and 109 and 107
- pEC50 (T. cruzi) [3]: 5.7 and 6.1 and 5.8 and 6.5 and 5.9 and 6.0
- MLM CLi ([4]; mouse liver microsomes): 1.2 mL/min/g
- PFI [5]: 7.8
- chromatographic logD [5]: 4.8
- EC50 (host Vero cell; individual replicate): > 50.1 µM
- IC50 (host Vero cell): > 50.1 µM
- Max Effect (Vero) (host Vero cell; individual replicate): 15 and 26 and 13 and 12 and 17 and 16 and 20 and 4

Compound: COc1cccc(N2C(=O)C(NC(=O)Nc3ccc(C)cc3)C(=O)Nc3ccccc32)c1 (stereo not shown) [Compound 5, 1-(1-(3-methoxyphenyl)-2,4-dioxo-2,3,4,5-tetrahydro-1H-benzo[b][1,4]diazepin-3-yl)-3-(p-tolyl)urea]
- HLM CLi ([1]; human liver microsomes): <0.4 mL/min/g
- solubility [2, 6]: 37 µM (≈ 15.9 µg/mL)
- Tc CYP51 Hill (Tc-CYP51): 0.7
- Emax (Tc-CYP51): 68%
- IC50 (Tc-CYP51): 3.98 µM
- fold more potent against the parasites than against Tc-CYP51 (Tc-CYP51): 10 fold
- Emax [3]: 87%
- EC50 [3]: 2.51 µM
- IC50 [3]: 2.51 µM
- Hill slope (T. cruzi) [3]: 2.8 and 3.2
- Max Effect (T. cruzi) [3]: 88 and 91
- pEC50 (T. cruzi) [3]: 5.7 and 5.5
- MLM CLi ([4]; mouse liver microsomes): 1.6 mL/min/g
- PFI [5]: 7.8
- chromatographic logD [5]: 4.8
- EC50 (host Vero cell; individual replicate): > 50.1 µM
- IC50 (host Vero cell): > 50.1 µM
- Max Effect (Vero) (host Vero cell; individual replicate): 47 and 14 and 18 and 12

Compound: COc1ccc(NC(=O)NC2C(=O)Nc3cccc(F)c3N(c3ccccc3)C2=O)cc1 (stereo not shown) [Compound 9, 1-(9-fluoro-2,4-dioxo-1-phenyl-2,3,4,5-tetrahydro-1H-benzo[b][1,4]diazepin-3-yl)-3-(4-methoxyphenyl)urea]
- HLM CLi ([1]; human liver microsomes): <0.4 mL/min/g
- solubility [2, 6]: < 1 µM
- Tc CYP51 Hill (Tc-CYP51): 1.3
- Emax (Tc-CYP51): 90%
- IC50 (Tc-CYP51): 10 µM
- fold more potent against the parasites than against Tc-CYP51 (Tc-CYP51): 10 fold
- Emax [3]: 91%
- EC50 [3]: 0.501 µM
- IC50 [3]: 0.398 µM
- Hill slope (T. cruzi) [3]: 5.2 and 12.9 and 2.3 and 2.7
- Max Effect (T. cruzi) [3]: 89 and 94
- pEC50 (T. cruzi) [3]: 6.5 and 6.4
- MLM CLi ([4]; mouse liver microsomes): <0.5 mL/min/g
- PFI [5]: 7.2
- chromatographic logD [5]: 4.2
- EC50 (host Vero cell; individual replicate): > 50.1 µM
- IC50 (host Vero cell): > 50.1 µM
- Max Effect (Vero) (host Vero cell; individual replicate): 6 and 11 and -2.3 and 8

Compound: Cc1ccc(NC(=O)NC2COc3ccccc3N(c3ccccc3)C2=O)cc1 (stereo not shown) [Compound 13, 1-(4-oxo-5-phenyl-2,3,4,5-tetrahydrobenzo[b][1,4]oxazepin-3-yl)-3-(p-tolyl)urea]
- HLM CLi ([1]; human liver microsomes): <0.4 mL/min/g
- solubility [2, 6]: 27 µM (≈ 10.5 µg/mL)
- IC50 [3]: 25.1 µM
- Hill slope (T. cruzi) [3]: 2.6 and 8.4 and 3.4 and 2.9 and 1.5
- Max Effect (T. cruzi) [3]: 84 and 89 and 94 and 80 and 46
- pEC50 (T. cruzi) [3]: 4.6 and 4.8 and 4.7 and 4.5 and < 4.3
- MLM CLi ([4]; mouse liver microsomes): 4.9 mL/min/g
- PFI [5]: 9.1
- chromatographic logD [5]: 6.1
- EC50 (host Vero cell; individual replicate): 39.8 µM
- IC50 (host Vero cell): 50.1 µM
- Hill Slope (Vero) (host Vero cell; individual replicate): 12.0 and 13.9 and 15.1 and 6.4
- Max Effect (Vero) (host Vero cell; individual replicate): 80 and 67 and 70 and 76 and 15 and 5.57
- pEC50 (Vero) (host Vero cell; individual replicate): 4.3 and < 4.3

Compound: COc1ccc(CN2C(=O)C(N)C(=O)N(c3ccccc3)c3ccccc32)cc1 (stereo not shown) [Compound 15, 3-amino-1-(4-methoxybenzyl)-5-phenyl-1,5-dihydro-2H-benzo[b][1,4]diazepine-2,4(3H)-dione]
- HLM CLi ([1]; human liver microsomes): 1.3 mL/min/g
- solubility [2, 6]: > 232 µM
- Tc CYP51 Hill (Tc-CYP51): 1.2
- Emax (Tc-CYP51): 94%
- IC50 (Tc-CYP51): 0.2 µM
- Emax [3]: 87%
- EC50 [3]: 1.58 µM
- IC50 [3]: 1.58 µM
- Hill slope (T. cruzi) [3]: 1.8 and 4.1 and 3.2 and 10.2
- Max Effect (T. cruzi) [3]: 92 and 88
- pEC50 (T. cruzi) [3]: 5.7 and 5.9
- MLM CLi ([4]; mouse liver microsomes): 16 mL/min/g
- PFI [5]: 7.1
- chromatographic logD [5]: 4.1
- EC50 (host Vero cell; individual replicate): > 50.1 µM
- IC50 (host Vero cell): > 50.1 µM
- Max Effect (Vero) (host Vero cell; individual replicate): 9 and 4.52 and 11 and 20

Compound: COc1ccc(CN2C(=O)C(N)C(=O)N(c3ccc(F)cc3)c3ccccc32)cc1 (stereo not shown) [Compound 17, 3-amino-1-(4-fluorophenyl)-5-(4-methoxybenzyl)-1,5-dihydro-2H-benzo[b][1,4]diazepine-2,4(3H)-dione]
- HLM CLi ([1]; human liver microsomes): <0.4 mL/min/g
- solubility [2, 6]: > 410 µM
- Tc CYP51 Hill (Tc-CYP51): 1.8
- Emax (Tc-CYP51): 95%
- IC50 (Tc-CYP51): 0.2 µM
- Emax [3]: 88%
- EC50 [3]: 0.501 µM
- IC50 [3]: 0.631 µM
- Hill slope (T. cruzi) [3]: 24.4 and 25.4 and 12.5 and 3.5
- Max Effect (T. cruzi) [3]: 87 and 83
- pEC50 (T. cruzi) [3]: 6.2 and 6.0
- MLM CLi ([4]; mouse liver microsomes): 10.6 mL/min/g
- PFI [5]: 7.4
- chromatographic logD [5]: 4.4
- EC50 (host Vero cell; individual replicate): > 50.1 µM
- IC50 (host Vero cell): > 50.1 µM
- Max Effect (Vero) (host Vero cell; individual replicate): 26 and 8 and 14 and 23

Compound: COc1ccc(CN2C(=O)C(N)C(=O)N(c3ccccc3)c3c(F)cccc32)cc1 (stereo not shown) [Compound 21, 3-amino-6-fluoro-1-(4-methoxybenzyl)-5-phenyl-1,5-dihydro-2H-benzo[b][1,4]diazepine-2,4(3H)-dione]
- HLM CLi ([1]; human, microsomes): <0.4 mL/min/g
- solubility [2]: > 217 µM
- Emax [3]: 81%
- IC50 [3]: 1.26 µM
- Hill slope (T. cruzi) [3]: 13.4 and 21.5 and 12.3 and 1.4 and 2.3 and 17.2
- Max Effect (T. cruzi) [3]: 88 and 90 and 85
- pEC50 (T. cruzi) [3]: 5.8 and 6.3 and 5.7
- MLM CLi ([4]; mouse, microsomes): 9.0 mL/min/g
- PFI [5]: 7.3
- chromatographic logD [5]: 4.3
- EC50 (host Vero cell; individual replicate): > 50.1 µM
- IC50 (host Vero cell): > 50.1 µM
- Max Effect (Vero) (host Vero cell; individual replicate): -0.364 and 17 and 0.947 and 18 and 21 and 12

Compound: COc1ccc(CN2C(=O)CC(=O)N(c3ccc(OC)cc3)c3ccccc32)cc1 [Compound 23, 1-(4-methoxybenzyl)-5-(4-methoxyphenyl)-1,5-dihydro-2H-benzo[b][1,4]diazepine-2,4(3H)-dione]
- HLM CLi ([1]; human, microsomes): >37 mL/min/g
- solubility [2]: 175 µM (≈ 70.4 µg/mL)
- EC50 [3]: > 50.1 µM
- IC50 [3]: > 50.1 µM
- Max Effect (T. cruzi) [3]: 39 and 11 and 27 and 29
- MLM CLi ([4]; mouse, microsomes): 80 mL/min/g
- PFI [5]: 8.1
- chromatographic logD [5]: 5.1
- EC50 (host Vero cell; individual replicate): > 50.1 µM
- IC50 (host Vero cell): > 50.1 µM
- Max Effect (Vero) (host Vero cell; individual replicate): 2.11 and 2.25 and 31 and 32
